For one data set, the system named is ECV304 cell layers. The experiment in a line: in vitro. As for the experimental part: (§1) All solutions were prepared under sterile conditions.
(§2) For quantification of NSAIDs a reverse-phase high-performance liquid chromatography (RP-HPLC) system from Shimadzu was used (DGV-20A5/prominence Degasser, SIL – 20AC/prominence Auto Sampler, CTO – 20AC/prominence Column Oven, SPD – 20A/prominence UV detector, CMB – 20A/prominence Communications Bus Module). […] Before analysis proteins of samples were precipitated with ice-cold methanol or acetonitril depending on mobile phase composition and supernatants were analyzed. Data aquisition and analysis were performed by LC-Solution software (Shimadzu Handelsgesellschaft, Austria). Substances were analysed in triplicates with a injection volume of 20–50 µL.Varying mixtures of methanol, acetonitrile, and 10 mM potassium buffer (pH = 2.5 for all analysis except pH = 3.5 for single studies with celecoxib) were used as mobile phase.
(§3) Permeability coefficients were calculated following the clearance principle as described recently. Results of blank value experiments were included into permeability coefficient calculation by using reciprocal correlation shown in equation (1):
(§4) 1/PEcell = 1/PEall – 1/PEblank (1)
(§5) PEblank refers to the permeability coefficient without cell layer, PEall represents the permeability coefficient through membrane insert and the cell layer and PEcell is the permeability coefficient only through the cell layer.

Data set [1] deals with primary rat brain microvascular endothelial cells (RBMEC). The data set is described as follows: in vitro. How it is done:
as §1, §2, §3, §4, §5

The subject of a further data set is PBMEC/C1-2 cell layers. The data set is described as follows: in vitro. The settings on record: for PEcell: PBMEC/C1-2 group study. How it is done:
as §1, §2, §3, §4, §5

Data set [2] in a line: in vitro. As for the experimental part: as §1, §2, §3, §4, §5
The nature of data set [3]: in vitro. The settings on record: human, PEcell. How it is done:
as §1, §2, §3, §4, §5

Data set [4] is classed as in vitro ADME, calf. The settings on record: group composition, ultrafiltration. As for the experimental part: […]. After incubation at 37°C for 40 minutes, 2 mL of the solutions were centrifuged across prewashed (2 mL PBS, 10 minutes, 2500 g) Centrisart ultra-filters (molecular cut-off 10 kDa, Sartorius) at 2500 g for 5 (PBS and 0% serum), 10 (7.5% serum) or 15 (50% and 100% serum) minutes to obtain at least one third to one half of the totally applied volume. […]. Carboxyfluorescein was measured by the microplate reader method as described above. Unbound substance concentrations in the filtrates were related to stock solutions to determine the serum binding (100%-unbound fraction [%]). Blank experiments (PBS, 0% serum experiments) were included in the calculation of serum binding values to consider systematic procedure errors and binding of the substances to the ultrafiltration membrane. Experiments under each condition were repeated for three times.

The mark [5] stands for this setting: ECV304 group study, all substances (6 NSAIDs, diazepam, CF), C6 medium.
Setting [6] is: ECV304 group study, without Meloxicam.
Setting [7] is: with probenecid (concentration not stated), ECV304 group study, with Probenecid, without Meloxicam.
The mark [8] stands for this setting: with verapamil (concentration not stated), ECV304 group study, with Verapamil, without Meloxicam.
The mark [9] stands for this setting: pig, PEcell, PBMEC/C1-2 group study, all substances (6 NSAIDs, diazepam, CF), C6 medium.
The mark [10] stands for this setting: pig, PEcell, PBMEC/C1-2 group study, without Meloxicam.
Setting [11] is: pig, with verapamil (concentration not stated), PEcell, PBMEC/C1-2 group study, with Verapamil, without Meloxicam.

Like-named read-outs stand apart in the source and are kept apart here.

For the molecule `CN1C(C(=O)Nc2ccccn2)=C(O)c2sccc2S1(=O)=O` [Tenoxicam, tenoxicam], the PSblank in the data set with ECV304 cell layers (100 µM) was 7.12 ± 0.50 µL/min; in data set [1] (100 µM), 1.74 ± 0.10 µL/min; with PBMEC/C1-2 cell layers (100 µM) it was 7.47 ± 0.31 µL/min. The PEall in the data set on ECV304 cell layers (human, 100 µM) turned out to be 5.15±0.05 µm/min; in data set [1] (rat, 100 µM) it was 7.82±0.21 µm/min; with PBMEC/C1-2 cell layers (pig, 100 µM), 9.84±0.16 µm/min. Also, the PSall in the data set on ECV304 cell layers (human, 100 µM) was 2.16 ± 0.02 µL/min; in data set [1] (rat, 100 µM) it was 0.70 ± 0.02 µL/min; with PBMEC/C1-2 cell layers (pig, 100 µM) it was 4.13 ± 0.07 µL/min. The PScell in the data set with ECV304 cell layers (human, 100 µM) came to 3.11 ± 0.04 µL/min; in data set [1] (rat, 100 µM) it was 1.18 ± 0.05 µL/min; with PBMEC/C1-2 cell layers (pig, 100 µM), 9.25 ± 0.33 µL/min. Moreover, the apparent permeability coefficient (Papp) – broadly, the rate of passage across a membrane or cell layer, normalised by area and donor concentration – at 100 µM in the data set “in vitro [2]” (human) is 12.3 ×10⁻⁶ cm/s; in “in vitro [2]” (pig), 36.7 ×10⁻⁶ cm/s; in “in vitro [2]” (pig, PEcell), 38.5 ×10⁻⁶ cm/s; in the data set “in vitro [2]” (rat) it was 21.9 ×10⁻⁶ cm/s.

As for `CC(C)Cc1ccc(C(C)C(=O)O)cc1` (centres unmarked) [Ibuprofen, ibuprofen], the figures for the Papp at 100 µM in “in vitro [3]”, in the data set “in vitro [2]” (pig) and in the data set “in vitro [2]” (rat) were 16.3 ×10⁻⁶ cm/s, 28.2 ×10⁻⁶ cm/s and 53.3 ×10⁻⁶ cm/s, respectively. Besides, in the data set with ECV304 cell layers (human, 100 µM), the PEall turned out to be 4.82±0.05 µm/min. In addition, the PSblank came out at 1.71 ± 0.15 µL/min in data set [1] and 6.72 ± 0.12 µL/min in the data set on PBMEC/C1-2 cell layers. The PSall in data set [1] (rat) came out at 1.07 ± 0.06 µL/min; with PBMEC/C1-2 cell layers (PBMEC/C1-2, Ibuprofen study, insert and cell layer), 3.45 ± 0.15 µL/min. The PScell in data set [1] (rat) worked out at 2.86 ± 0.39 µL/min; in the data set with PBMEC/C1-2 cell layers (PBMEC/C1-2, Ibuprofen study, cell layer only), 7.10 ± 0.65 µL/min.

Turning to `O=C(O)Cc1ccccc1Nc1c(Cl)cccc1Cl` [Diclofenac, diclofenac], the results for the PSblank (in the data set with ECV304 cell layers (100 µM); in data set [1] (100 µM); with PBMEC/C1-2 cell layers (100 µM)) were 4.08 ± 0.41 µL/min, 1.65 ± 0.13 µL/min and 5.83 ± 0.26 µL/min, respectively. Further, the PEall worked out at 3.58±0.18 µm/min with ECV304 cell layers (human, 100 µM); 10.84±0.51 µm/min in data set [1] (rat, 100 µM); 6.00±0.38 µm/min in the data set on PBMEC/C1-2 cell layers (pig, 100 µM). The PSall in the data set with ECV304 cell layers (human, 100 µM) came out at 1.50 ± 0.08 µL/min; in data set [1] (rat, 100 µM), 0.96 ± 0.05 µL/min; in the data set with PBMEC/C1-2 cell layers (pig, 100 µM), 2.52 ± 0.16 µL/min. Besides, the PScell with ECV304 cell layers (human, 100 µM) is 2.38 ± 0.19 µL/min; in data set [1] (rat, 100 µM), 2.39 ± 0.27 µL/min; with PBMEC/C1-2 cell layers (pig, 100 µM), 4.44 ± 0.48 µL/min. Also, the Papp at 100 µM in “in vitro [2]” (human) is 9.45 ×10⁻⁶ cm/s; in “in vitro [2]” (pig), 17.7 ×10⁻⁶ cm/s; in the data set “in vitro [2]” (rat), 44.6 ×10⁻⁶ cm/s.

For `Cc1ccc(-c2cc(C(F)(F)F)nn2-c2ccc(S(N)(=O)=O)cc2)cc1` [Celecoxib, celecoxib], the Papp at 100 µM was 11 ×10⁻⁶ cm/s in the data set “in vitro [3]” (setting [5]); 23.3 ×10⁻⁶ cm/s in the data set “in vitro [3]” (setting [6]); 15.5 ×10⁻⁶ cm/s in “in vitro [3]” (setting [7]); 10.3 ×10⁻⁶ cm/s in “in vitro [3]” (setting [8]); 7.62 ×10⁻⁶ cm/s in “in vitro [2]” (human); 22.4 ×10⁻⁶ cm/s in “in vitro [2]” (pig). In addition, the apparent permeability (Papp) at 100 µM is 22.1 ×10⁻⁶ cm/s in “in vitro [2]” (setting [9]); 25.8 ×10⁻⁶ cm/s in “in vitro [2]” (setting [10]); 27.8 ×10⁻⁶ cm/s in “in vitro [2]” (pig, with probenecid (concentration not stated), PEcell, PBMEC/C1-2 group study, with Probenecid, without Meloxicam); 35.1 ×10⁻⁶ cm/s in the data set “in vitro [2]” (setting [11]). Also, the PSblank in the data set with ECV304 cell layers (100 µM) is 5.10 ± 0.06 µL/min; in the data set with PBMEC/C1-2 cell layers (100 µM), 6.07 ± 0.45 µL/min. Also, the PEall with ECV304 cell layers (ECV304, Celecoxib study, insert and cell layer) came to 3.31±0.41 µm/min; with PBMEC/C1-2 cell layers (PBMEC/C1-2, Celecoxib study, insert and cell layer), 6.95±0.45 µm/min. Also, the PSall was 1.39 ± 0.17 µL/min with ECV304 cell layers (human, 100 µM) and 2.92 ± 0.19 µL/min with PBMEC/C1-2 cell layers (pig, 100 µM). Also, the PScell with ECV304 cell layers (human, 100 µM) was 1.91 ± 0.32 µL/min; in the data set on PBMEC/C1-2 cell layers (pig, 100 µM) it was 5.62 ± 0.71 µL/min.

Turning to `CN1C(C(=O)Nc2ccccn2)=C(O)c2ccccc2S1(=O)=O` [Piroxicam, piroxicam], the Papp at 100 µM in the data set “in vitro [3]” (setting [5]) is 21.4 ×10⁻⁶ cm/s; in the data set “in vitro [3]” (ECV304 group study, glioma conditioned medium, without celecoxib), 30.8 ×10⁻⁶ cm/s; in “in vitro [3]” (ECV304 group study, serum-free medium, without celecoxib), 37.8 ×10⁻⁶ cm/s; in “in vitro [3]” (ECV304 group study, without CF (and without celecoxib)) it was 30.3 ×10⁻⁶ cm/s; in “in vitro [3]” (ECV304 group study, without Celecoxib) it was 28.6 ×10⁻⁶ cm/s; in “in vitro [3]” (setting [6]) it was 45.9 ×10⁻⁶ cm/s. Further, the Papp at 100 µM in “in vitro [3]” (setting [7]) was 29.5 ×10⁻⁶ cm/s; in “in vitro [3]” (setting [8]), 26.6 ×10⁻⁶ cm/s; in the data set “in vitro [2]” (human), 20.4 ×10⁻⁶ cm/s; in “in vitro [2]” (pig) it was 39.7 ×10⁻⁶ cm/s; in the data set “in vitro [2]” (setting [9]) it was 70 ×10⁻⁶ cm/s; in the data set “in vitro [2]” (pig, PEcell, PBMEC/C1-2 group study, glioma conditioned medium, without celecoxib), 49.8 ×10⁻⁶ cm/s. For the same molecule, the Papp at 100 µM was 42.1 ×10⁻⁶ cm/s in the data set “in vitro [2]” (pig, PEcell, PBMEC/C1-2 group study, without Celecoxib); 64.2 ×10⁻⁶ cm/s in the data set “in vitro [2]” (setting [10]); 66.8 ×10⁻⁶ cm/s in the data set “in vitro [2]” (setting [11]); 52.3 ×10⁻⁶ cm/s in the data set “in vitro [2]” (rat). Further, the PSblank was 8.53 ± 0.36 µL/min in the data set with ECV304 cell layers (100 µM), 1.94 ± 0.12 µL/min in data set [1] (100 µM) and 8.69 ± 0.72 µL/min in the data set with PBMEC/C1-2 cell layers (100 µM). Further, the PEall with ECV304 cell layers (ECV304, Piroxicam study, insert and cell layer) turned out to be 7.65±0.18 µm/min; in data set [1] (RBMEC group study, insert and cell layer) it was 12.76±0.33 µm/min; with PBMEC/C1-2 cell layers (PBMEC/C1-2, Piroxicam study, insert and cell layer) it was 11.02±0.87 µm/min. In addition, the PSall was 3.21 ± 0.07 µL/min with ECV304 cell layers (human, 100 µM); 1.15 ± 0.03 µL/min in data set [1] (rat, 100 µM); 4.63 ± 0.36 µL/min in the data set on PBMEC/C1-2 cell layers (pig, 240 min, 100 µM). Besides, the PScell is 5.15 ± 0.19 µL/min in the data set with ECV304 cell layers (human, 240 min, 100 µM); 2.82 ± 0.17 µL/min in data set [1] (rat, 100 µM); 9.91 ± 1.60 µL/min in the data set on PBMEC/C1-2 cell layers (pig, 240 min, 100 µM). Moreover, the PEcell in the data set with PBMEC/C1-2 cell layers (serum-free medium, without celecoxib) came out at 24.96±2.08 µm/min; in the data set on PBMEC/C1-2 cell layers (with Probenecid, without Meloxicam) it was 30.26±5.85 µm/min; in the data set on PBMEC/C1-2 cell layers (without CF (and without celecoxib)) it was 30.27±2.61 µm/min.

Take `CN1C(=O)CN=C(c2ccccc2)c2cc(Cl)ccc21` [Diazepam, diazepam]: the Serum binding in data set [4] (Serum concentration 50%) amounted to 19.52±0.13%; in data set [4] (Serum concentration 100%), 22.52±0.06%; in data set [4] (Serum concentration […] (C6 medium)), 8.17±0.49%. For the same molecule, the PEall in the data set on PBMEC/C1-2 cell layers (pig) is listed as 11.10±1.33 µm/min.

For the molecule carboxyfluorescein [CF], the “Permeability coefficients (PEcell), range of averages over the single studies” value in the data set with PBMEC/C1-2 cell layers is recorded as 16.67-19.66 µm/min.
